Read-outs that look alike come from different tables or passages of the source.
Test system: HCV replicon
Assay: microbe, parasite or virus in culture
Type: cell-based
[1] = Replicon IC50 values are determined by firefly luciferase signal, bicistronic replicon, 2 days, read-out: Replicon IC5Os
[2] = Hepatitis C virus, 48 h, read-out: Replicon IC5Os
[3] = bicistronic HCV replicon, determined by firefly luciferase signal, cells cultured with compound for 2 days, read-out: Replicon IC5Os
[4] = Hepatitis C virus, 48 h, read-out: Replicon IC5Os μM

Structure (SMILES)	IC50 [3] [µM]	further results
CCCn1c(-c2ccc(N(C)S(=O)(=O)CC)cc2)c(C#N)c2ccc(OC(F)F)cc21 [Compound 685]	–	IC50 [1]: 0.5 to 2 µM
CCS(=O)(=O)N(C)c1ccc(-c2c(C#N)c3ccc(OC)cc3n2CC2CC2)cc1 [Compound 686]	–	IC50 [1]: 0.5 to 2 µM
CCS(=O)(=O)N(C)c1ccc(-c2c(C#N)c3ccc(OC(F)F)cc3n2C)cc1 [Compound 687]	–	IC50 [1]: < 0.5 µM
COc1ccc2c(C#N)c(-c3ccc(N(C)S(C)(=O)=O)cc3)n(CC3CC3)c2c1 [Compound 688]	–	IC50 [1]: 0.5 to 2 µM
CCS(=O)(=O)N(C)c1ccc(-c2c(C#N)c3ccc(OC)cc3n2C)cc1 [Compound 694]	–	IC50 [1]: 0.5 to 2 µM
CCCn1c(-c2ccc(N(C)S(C)(=O)=O)cc2)c(C#N)c2ccc(OC)cc21 [Compound 695]	–	IC50 [1]: 0.5 to 2 µM
COc1ccc2c(C#N)c(-c3ccc(N(C)S(C)(=O)=O)cc3)n(C(C)C)c2c1 [Compound 696]	–	IC50 [1]: 0.5 to 2 µM
CCn1c(-c2ccc(N(C)S(=O)(=O)CCN3CCCC3)cc2)c(C#N)c2ccc(OC)cc21 [Compound 697]	–	IC50 [2]: < 0.5 µM
CCn1c(-c2ccc(N(C)S(=O)(=O)CCN3CCSCC3)cc2)c(C#N)c2ccc(OC)cc21 [Compound 698]	–	IC50 [2]: 0.5 to 2 µM
CCCS(=O)(=O)N1CCc2cc(-c3c(C#N)c4ccc(OC)cc4n3CC)ccc21 [Compound 703]	–	IC50 [1]: 0.5 to 2 µM
CCn1c(-c2cccc(NS(=O)(=O)NCCCl)c2)c(C#N)c2ccc(OC)cc21 [Compound 704]	–	IC50 [1]: > 2 µM
CCn1c(-c2cccc(N3CCNS3(=O)=O)c2)c(C#N)c2ccc(OC)cc21 [Compound 705]	–	IC50 [1]: > 2 µM
CCCCn1c(-c2ccc(NS(=O)(=O)CCC)cc2)c(C#N)c2ccc(OC)cc21 [Compound 708]	–	IC50 [1]: 0.5 to 2 µM
CCn1c(-c2ccc3[nH]ccc3c2)c(C#N)c2ccc(OC)cc21 [Compound 712]	–	IC50 [1]: > 2 µM
N#Cc1cn(CC2CC2)c2cc(OC(F)(F)F)ccc12 [Compound 714]	–	IC50 [1]: 0.5 to 2 µM
CCn1c(-c2ccc(NS(C)(=O)=O)cc2)c(C#N)c2ccc(OC(F)(F)F)cc21 [Compound 715]	–	IC50 [1]: < 0.5 µM
COc1ccc2c(C#N)c(-c3ccc(N4CCCS4(=O)=O)cc3)n(CC3CC3)c2c1 [Compound 716, 2-[4-(1,1-dioxidoisothiazolidin-2-yl)phenyl]-1-cyclopropylmethyl-6-methoxy-1H-indole-3-carbonitrile]	–	IC50 [2]: 0.5 to 2 µM
COc1ccc2c(C#N)c(-c3ccc(S(=O)(=O)NC4CC4)cc3)n(CC3CCCC3)c2c1 [Compound 718]	–	IC50 [1]: 0.5 to 2 µM
COc1ccc2c(C#N)c(-c3ccc(S(N)(=O)=O)cc3)n(CC3CCCC3)c2c1 [Compound 719]	–	IC50 [1]: > 2 µM
CCn1c(-c2ccc(N3CCCS3(=O)=O)cc2)c(C#N)c2ccc(OCCN3CCCC3)cc21 [Compound 728]	–	IC50 [1]: < 0.5 µM
CCn1c(-c2ccc(N3CCCS3(=O)=O)cc2)c(C#N)c2ccc(OCCN3CCOCC3)cc21 [Compound 730]	–	IC50 [1]: < 0.5 µM
N#Cc1c(-c2ccc(N)cc2)n(CC2CC2)c2cc(OC(F)F)ccc12 [Compound 733]	–	IC50 [1]: > 2 µM
COCCOC(=O)Nc1ccc(-c2c(C#N)c3ccc(OC(F)F)cc3n2CC2CC2)cc1 [Compound 739]	–	IC50 [1]: > 2 µM
CCNC(=O)Nc1ccc(-c2c(C#N)c3ccc(OC(F)F)cc3n2CC2CC2)cc1 [Compound 740]	–	IC50 [1]: 0.5 to 2 µM
CCOC(=O)Nc1cccc(-c2c(C#N)c3ccc(OC(F)F)cc3n2CC2CC2)c1 [Compound 745]	–	IC50 [2]: < 0.5 µM
CCCOC(=O)Nc1cccc(-c2c(C#N)c3ccc(OC(F)F)cc3n2CC2CC2)c1 [Compound 746]	–	IC50 [1]: > 2 µM
CCCS(=O)(=O)N1CCc2ccc(-c3c(C#N)c4ccc(OC)cc4n3CC)cc21 [Compound 754]	–	IC50 [1]: 0.5 to 2 µM

Structure (SMILES)	IC50 [3] [µM]	further results
CCn1c(-c2ccc(NC(=O)c3ccno3)cc2)c(C#N)c2ccccc21 [Compound 755]	–	IC50 [2]: < 0.5 µM
CCn1c(-c2ccc(NC(=O)c3snnc3C)cc2)c(C#N)c2ccccc21 [Compound 756]	–	IC50 [2]: < 0.5 µM
CCC(=O)Nc1ccc(-c2c(C#N)c3ccc(OC(C)C)cc3n2CC)cc1 [Compound 759]	–	IC50 [2]: < 0.5 µM
CCn1c(-c2ccc(NC(=O)C3CCC3)cc2)c(C#N)c2ccc(OC(C)C)cc21 [Compound 760]	–	IC50 [2]: < 0.5 µM
CCn1c(-c2ccc(NC(=O)c3ccc4nonc4c3)cc2)c(C#N)c2cc(OC)ccc21 [Compound 765]	0.5 to 2	–
CCS(=O)(=O)N(C(C)=O)c1ccc(-c2cc3ccc(OC)cc3n2C(=O)OC(C)(C)C)cc1 [Compound 769]	> 2	–
CCn1c(-c2cccc(N3CCNC3=O)c2)c(C#N)c2ccc(OC)cc21 [Compound 770]	> 2	–
CCCn1c(-c2ccc(N3CCCS3(=O)=O)cc2)c(C#N)c2ccc(OCCOC(C)=O)cc21 [Compound 775]	0.5 to 2	–
CCOc1ccc2c(C#N)c(-c3ccc(N4CCNC4=O)cc3)n(CC)c2c1 [Compound 778]	< 0.5	–
CCCn1c(-c2cccc(N3CCCS3(=O)=O)c2)c(C#N)c2ccc(OC)cc21 [Compound 783]	> 2	–
CCn1c(N2CCC(NC(=O)OC(C)(C)C)CC2)c(C#N)c2ccc(C(F)(F)F)cc21 [Compound 786]	> 2	–
COC(=O)Nc1cccc(-c2c(C#N)c3ccc(OC)cc3n2Cc2ccccc2)c1 [Compound 787]	> 2	–
CCCCOC(=O)Nc1cccc(-c2c(C#N)c3ccc(OC)cc3n2Cc2ccccc2)c1 [Compound 788]	> 2	–
CCn1c(-c2ccc(NS(=O)(=O)C(C)C)cc2)c(C#N)c2cc(OC)ccc21 [Compound 790]	–	IC50 [4]: < 0.5 µM
CCn1c(-c2ccc(N)cc2)c(C#N)c2cc(O)ccc21 [Compound 797]	0.5 to 2	–
CCn1c(-c2ccc(NC(=O)c3cc(C)on3)cc2)c(C#N)c2ccc(OC(C)C)cc21 [Compound 798]	> 2	–
CCCC(=O)Nc1ccc(-c2c(C#N)c3ccc(OC)cc3n2CC)cc1 [Compound 799]	–	IC50 [4]: < 0.5 µM
CCn1c(-c2ccc(NC(=O)c3ccco3)cc2)c(C#N)c2ccc(OC)cc21 [Compound 803]	> 2	–
CCn1c(-c2ccc(NC(=O)c3cc(C)on3)cc2)c(C#N)c2ccc(OC)cc21 [Compound 804]	> 2	–
N#Cc1c(-c2ccc(N3CCCC3=O)cc2)n(CC2CC2)c2cc(OC(F)F)ccc12 [Compound 806]	0.5 to 2	–
CCCn1c(-c2ccc(N3CCCC3=O)cc2)c(C#N)c2ccc(OC(F)F)cc21 [Compound 808]	0.5 to 2	–
CC(C)n1c(-c2ccc(N3CCCC3=O)cc2)c(C#N)c2ccc(OC(F)F)cc21 [Compound 809]	0.5 to 2	–
N#Cc1c(-c2ccc(N3CCCC3=O)cc2)n(C2CCC2)c2cc(OC(F)F)ccc12 [Compound 810]	0.5 to 2	–
N#Cc1c(-c2ccc(N)cc2)n(C2CCC2)c2cc(OC(F)F)ccc12 [Compound 811]	> 2	–
CCCS(=O)(=O)Nc1ccc(-c2c(C#N)c3ccc(OC(F)F)cc3n2C2CCC2)cc1 [Compound 812]	0.5 to 2	–
N#Cc1c(-c2ccc(NS(=O)(=O)C3CC3)cc2)n(C2CCC2)c2cc(OC(F)F)ccc12 [Compound 813]	< 0.5	–
CCCNC(=O)Nc1cccc(-c2c(C#N)c3ccc(OC)cc3n2Cc2ccccc2)c1 [Compound 817]	> 2	–

Structure (SMILES)	IC50 [3] [µM]	further results
CCn1c(-c2cc(N3CCOC3=O)ccc2F)c(C#N)c2ccc(OC(C)C)cc21 [Compound 820]	0.5 to 2	–
CCn1c(-c2ccc(F)c(N3CCOC3=O)c2)c(C#N)c2ccc(OC(C)C)cc21 [Compound 821]	> 2	–
COCCOC(=O)Nc1ccc(-c2c(C#N)c3ccc(OC(F)F)cc3n2C2CCC2)cc1 [Compound 823]	> 2	–
CCCn1c(-c2ccc(NC(=O)OC(C)C)cc2)c(C#N)c2ccc(OC(F)F)cc21 [Compound 824]	> 2	–
CCCn1c(-c2ccc(NC(=O)OCCOC)cc2)c(C#N)c2ccc(OC(F)F)cc21 [Compound 825]	> 2	–
CCCn1c(-c2ccc(NC(=O)OCCF)cc2)c(C#N)c2ccc(OC(F)F)cc21 [Compound 826]	0.5 to 2	–
N#Cc1c(-c2ccc(N3CCCS3(=O)=O)cc2)[nH]c2cc(OC(F)(F)F)ccc12 [Compound 829]	0.5 to 2	–
CCn1c(-c2ccc(OC(F)F)cc2)c(C#N)c2ccc(NS(=O)(=O)CC)cc21 [Compound 830]	0.5 to 2	–
CCCS(=O)(=O)Nc1ccc2c(C#N)c(-c3ccc(OCC)cc3)n(CC)c2c1 [Compound 836]	> 2	–
CCOc1ccc(-c2c(C#N)c3ccc(NS(=O)(=O)C4CC4)cc3n2CC)cc1 [Compound 837]	> 2	–
CCn1c(-c2ccc(N(C)S(=O)(=O)C3CC3)cc2)c(C#N)c2ccc(OCCF)cc21 [Compound 840]	> 2	–
CCCS(=O)(=O)N1CCN(c2c(C#N)c3ccc(C(F)(F)F)cc3n2CC)CC1 [Compound 841]	> 2	–
CCn1c(N2CCN(S(=O)(=O)c3ccccc3)CC2)c(C#N)c2ccc(C(F)(F)F)cc21 [Compound 843]	> 2	–
CCCn1c(-c2ccc(NC(=O)NC(C)C)cc2)c(C#N)c2ccc(OC)cc21 [Compound 846]	0.5 to 2	–
CCCCNC(=O)Nc1ccc(-c2c(C#N)c3ccc(OC)cc3n2CCC)cc1 [Compound 847]	0.5 to 2	–
CCCn1c(-c2ccc(NC(=O)OC)cc2)c(C#N)c2ccc(OC)cc21 [Compound 849]	0.5 to 2	–
CCCn1c(-c2ccc(N(CC)S(=O)(=O)CC)cc2)c(C#N)c2ccc(OC)cc21 [Compound 852]	0.5 to 2	–
CCn1c(-c2ccc(C(=O)N3CC3)cc2)c(C#N)c2ccc(OC)cc21 [Compound 853]	< 0.5	–
CCn1c(-c2ccc(NC(=O)C3CC3)cc2)c(C#N)c2ccccc21 [Compound 854]	–	IC50 [4]: 0.5 to 2 µM
CCn1c(-c2ccc(NC(=O)C(C)C)cc2)c(C#N)c2ccccc21 [Compound 855]	–	IC50 [4]: 0.5 to 2 µM
CCn1c(-c2ccc(NC(=O)CCl)cc2)c(C#N)c2cc(OC)ccc21 [Compound 856]	> 2	–
CCn1c(-c2ccc(NC(=O)COC)cc2)c(C#N)c2cc(OC)ccc21 [Compound 857]	0.5 to 2	–
CCn1c(-c2ccc(NC(=O)C(C)C)cc2)c(C#N)c2cc(OC)ccc21 [Compound 858]	–	IC50 [4]: < 0.5 µM
CCn1c(-c2ccc(C(=O)NC)cc2)c(C#N)c2cc(OC)ccc21 [Compound 860]	0.5 to 2	–
CCn1c(-c2ccc(C(=O)N3CC3)cc2)c(C#N)c2cc(OC)ccc21 [Compound 861]	–	IC50 [4]: 0.5 to 2 µM

From patent publication US8013006B2
